“And” between values parts separate entries of the source, which are not always exact repeats. Equal values may be shown once. “Also recorded” adds a separate entry of the source.
Columns and labels:
caspase 3 and PARP = assay: Cleavage of caspase 3 and PARP (immunoblot, Meso Scale plates); type: cell-based; details: 5 or 10 μM, 24 hrs
Experimental: FIGS. […]
Thereafter, cells were lysed and sized-fractionated and immunoblotted with antibody directed against FLIP, FIG. 29. Additionally, whole cell lysates were added to MDS (Meso Scale Diagnostics) multi-spot 96-well 4 spot plates coated with Total caspase-3, cleaved caspase-3, cleaved PARP, and BSA. Proteins were detected with antibodies labeled with SULFO-TAG reagent and quantified.

phospho-Akt(Ser473) = assay: Constitutive Akt phosphorylation in leukemia and lymphoma cell lines (immunoblot); type: cell-based
Experimental: A large panel of leukemia and lymphoma cell lines was assessed for constitutive Akt phosphorylation. These cell lines represent B-lymphoma, T-lymphoma, ALL, Malignant histiocytosis, DLBCL and AML. […] Thereafter, cell were lysed, size-fractioned and immunoblotted with antibodies directed against phospho-Akt(Ser473).
The PI3K pathway is frequently deregulated in leukemia and lymphoma cell lines. […] In addition, PI3K pathway activation is dependent on p110δ.

[1] = tested on: AKT (ser473), GSK3β (ser9); assay: AKT and GSK3β phosphorylation in CD19+ CLL cells with lenalidomide (immunoblot); details: 0.5 μM lenalidomide and/or 1 or 10 μM compound, 48 hours
Experimental: Immunoblots were performed.
AKT phosphorylation at ser473 was assessed by immunoblot.
GSK3β phosphorylation at ser9 was assessed by immunoblot. Results are shown from one of four experiments.
CD19+ cells from CLL patients (N=3) were transfected with siRNA targeted to PI3K-δ, PI3K-γ or a nonsense and then incubated with or without 0.5 μM lenalidomide for 48 hours. AKT phosphorylation at ser473 was assessed by immunoblot. Results are shown from one of three experiments.

[2] = tested on: CD19+ cells from CLL patients; assay: mRNA expression in CD19+ CLL cells (RT-PCR); type: cell-based, human; details: 0.5 μM lenalidomide and/or 10 μM compound, 48 hours
Experimental: RNA was extracted using TRIzol reagent (Invitrogen) and cDNA was prepared using a SuperScript First-Strand Synthesis System (Invitrogen). Real-Time PCR was performed using pre-designed TaqMan® Gene Expression Assays and ABI Prism 7700 sequence detection system (Applied Biosystems, Foster City, Calif.).
RNA was extracted and converted to cDNA and RT-PCR analysis was done to determine quantities of CD40, CD86 and CD154 mRNA.
Lastly, lenalidomide treatment of CLL cells in culture was tested to determine whether it could promote tumor cell production of vascular endothelial growth factor (VEGF) and basic fibroblast growth factor (b-FGF). […] RNA was extracted and converted to cDNA and RT-PCR analysis was done to determine quantities of bFGF.
RNA was extracted and converted to cDNA and RT-PCR analysis was done to determine quantities of VEGF

PI3Kα = PI3Kα (Mus musculus, UniProt P42337); assay: Isoform specific cell-based assay: PDGF induced pAKT in Swiss-3T3 fibroblasts; details: Fibroblast Cell Line, n = 12
Experimental: Swiss-3T3 fibroblasts and RAW-264 were seeded on a 96-well tissue culture plate and allowed to reach at least 90% confluency. […] Akt phosphorylation and total AKT was detected by ELISA. […] Results are expressed as relative [^3H] thymidine incorporation induced by IgM crosslinking.

CLL patients = assay: Samples from CLL patients undergoing treatment (phospho-flow, plasma cytokines); type: in vivo, human
[3] = tested on: IGROV-1 and OVCAR-3 cell lines; assay: Proliferation of ovarian cancer cell lines (AlamarBlue); type: cell-based; details: IGROV-1, OVCAR-3, 48 hrs and 72 hrs
Experimental: IGROV-1 and OVCAR-3 cell lines were grown in the presence of serum plus the indicated concentrations of the compound of formula I. Proliferation was measured in triplicate wells by AlamarBlue assay (Invitrogen) 96-well plates.

CLL cells = type: cell-based, human
Experimental: (§1) This pro-survival effect was abrogated by the compound of formula I, which reduced CLL cell viability to 85±3% of controls at 48 hours (mean±SEM, n=15, *P<0.05). […] BCR cross-linking induces secretion of the chemokines CCL3 and CCL4 by CLL cells, which was quantified in CLL supernatants by ELISA.
(§2) The CCL3 concentrations were reduced by the compound of formula I from 943±535 pg/mL to 156±8 pg/mL, and the CCL4 concentrations from 7433±4463 pg/mL to 316±53 pg/mL (mean±SEM, n=5, *P<0.05).

CLL-NLC co-cultures = type: cell-based, human
Experimental: as §1, §2

CIIbeta = CIIbeta (Homo sapiens, UniProt O00750); assay: InvitroGen Adapta kinase assay, CIIbeta; type: biochemical
patient AML cells = assay: Phospho-Akt production in patient AML cells; type: cell-based, human; details: 0.1, 1.0, 10 μM
Description: PI3Kδ is implicated in signaling in AML patient cells.

[4] = tested on: CLL cells on stromaNKTert; assay: Calcein-based adhesion assay of CLL cells on stroma; type: cell-based, human
Experimental: a confluent monolayer of CD154+L or StromaNKTert cells was generated by plating 1×10^4 cells/well in 96-well plates for 24 hours. Single cell suspensions of CLL cells at 0.5×10^6 cells/ml were then labeled with 1 μg/mL Calcein-AM (Invitrogen) for 1 hour. Cells were then spun down and treated with compound or vehicle for 1 to 24 hours. Non-adherent cells were washed off by aspiration. CLL cell adhesion was quantified by fluorimetry (Ex/Em=485/520 nm), and visualized directly using the Nikon TE2000 inverted live-cell imaging system.

LB cells = assay: LB cell proliferation with or without BMSCs ([3H]-thymidine uptake); type: cell-based, human; details: 0.625 μM-10 μM, 48 hours, presence of BMSC
Experimental: Cell proliferation was assessed using [^3H]-thymidine uptake assay. All data represent mean (±SD) of triplicate experiment.

Sequence of CIIbeta (O00750 whole entry): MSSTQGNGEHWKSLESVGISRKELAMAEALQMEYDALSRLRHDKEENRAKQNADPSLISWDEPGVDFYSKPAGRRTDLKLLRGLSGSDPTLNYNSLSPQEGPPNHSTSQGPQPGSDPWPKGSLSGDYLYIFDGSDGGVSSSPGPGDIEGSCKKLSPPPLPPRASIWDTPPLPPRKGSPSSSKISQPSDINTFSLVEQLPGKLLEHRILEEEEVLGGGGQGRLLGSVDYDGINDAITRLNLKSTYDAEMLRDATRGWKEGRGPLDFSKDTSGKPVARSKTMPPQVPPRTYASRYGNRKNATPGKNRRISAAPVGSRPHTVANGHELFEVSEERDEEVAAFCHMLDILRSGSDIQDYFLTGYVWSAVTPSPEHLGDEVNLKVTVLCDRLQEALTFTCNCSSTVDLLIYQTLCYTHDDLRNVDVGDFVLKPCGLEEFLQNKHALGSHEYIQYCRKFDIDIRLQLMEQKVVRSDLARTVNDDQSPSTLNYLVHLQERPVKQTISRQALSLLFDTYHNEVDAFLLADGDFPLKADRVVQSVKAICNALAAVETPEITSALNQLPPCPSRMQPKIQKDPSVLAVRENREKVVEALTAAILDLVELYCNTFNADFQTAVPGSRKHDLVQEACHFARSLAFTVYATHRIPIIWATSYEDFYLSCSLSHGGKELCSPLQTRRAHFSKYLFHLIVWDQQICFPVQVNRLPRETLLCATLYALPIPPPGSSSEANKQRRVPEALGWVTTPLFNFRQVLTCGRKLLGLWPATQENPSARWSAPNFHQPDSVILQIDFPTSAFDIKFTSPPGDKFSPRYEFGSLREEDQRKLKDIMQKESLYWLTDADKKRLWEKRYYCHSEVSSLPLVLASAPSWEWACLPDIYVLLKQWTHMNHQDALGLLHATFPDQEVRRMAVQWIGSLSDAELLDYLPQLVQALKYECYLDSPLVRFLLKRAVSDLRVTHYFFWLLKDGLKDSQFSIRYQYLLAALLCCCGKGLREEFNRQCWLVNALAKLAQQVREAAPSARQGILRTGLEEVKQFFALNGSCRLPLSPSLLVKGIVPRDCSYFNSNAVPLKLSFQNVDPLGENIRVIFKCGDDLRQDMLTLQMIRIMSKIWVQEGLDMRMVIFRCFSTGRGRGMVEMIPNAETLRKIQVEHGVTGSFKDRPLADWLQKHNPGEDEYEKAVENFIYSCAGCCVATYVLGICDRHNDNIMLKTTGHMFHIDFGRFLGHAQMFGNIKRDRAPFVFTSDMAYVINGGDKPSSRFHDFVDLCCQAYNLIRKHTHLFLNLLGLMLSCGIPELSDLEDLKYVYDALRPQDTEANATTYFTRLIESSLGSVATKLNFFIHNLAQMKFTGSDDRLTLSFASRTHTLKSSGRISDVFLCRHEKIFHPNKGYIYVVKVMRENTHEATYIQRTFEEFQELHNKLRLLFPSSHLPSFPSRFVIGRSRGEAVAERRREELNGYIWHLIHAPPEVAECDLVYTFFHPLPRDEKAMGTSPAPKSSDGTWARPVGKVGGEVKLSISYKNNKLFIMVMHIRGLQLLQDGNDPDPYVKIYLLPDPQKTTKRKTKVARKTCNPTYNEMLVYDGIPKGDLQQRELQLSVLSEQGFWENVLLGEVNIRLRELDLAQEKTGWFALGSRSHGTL
Sequence of PI3Kα (P42337 whole entry, canonical isoform): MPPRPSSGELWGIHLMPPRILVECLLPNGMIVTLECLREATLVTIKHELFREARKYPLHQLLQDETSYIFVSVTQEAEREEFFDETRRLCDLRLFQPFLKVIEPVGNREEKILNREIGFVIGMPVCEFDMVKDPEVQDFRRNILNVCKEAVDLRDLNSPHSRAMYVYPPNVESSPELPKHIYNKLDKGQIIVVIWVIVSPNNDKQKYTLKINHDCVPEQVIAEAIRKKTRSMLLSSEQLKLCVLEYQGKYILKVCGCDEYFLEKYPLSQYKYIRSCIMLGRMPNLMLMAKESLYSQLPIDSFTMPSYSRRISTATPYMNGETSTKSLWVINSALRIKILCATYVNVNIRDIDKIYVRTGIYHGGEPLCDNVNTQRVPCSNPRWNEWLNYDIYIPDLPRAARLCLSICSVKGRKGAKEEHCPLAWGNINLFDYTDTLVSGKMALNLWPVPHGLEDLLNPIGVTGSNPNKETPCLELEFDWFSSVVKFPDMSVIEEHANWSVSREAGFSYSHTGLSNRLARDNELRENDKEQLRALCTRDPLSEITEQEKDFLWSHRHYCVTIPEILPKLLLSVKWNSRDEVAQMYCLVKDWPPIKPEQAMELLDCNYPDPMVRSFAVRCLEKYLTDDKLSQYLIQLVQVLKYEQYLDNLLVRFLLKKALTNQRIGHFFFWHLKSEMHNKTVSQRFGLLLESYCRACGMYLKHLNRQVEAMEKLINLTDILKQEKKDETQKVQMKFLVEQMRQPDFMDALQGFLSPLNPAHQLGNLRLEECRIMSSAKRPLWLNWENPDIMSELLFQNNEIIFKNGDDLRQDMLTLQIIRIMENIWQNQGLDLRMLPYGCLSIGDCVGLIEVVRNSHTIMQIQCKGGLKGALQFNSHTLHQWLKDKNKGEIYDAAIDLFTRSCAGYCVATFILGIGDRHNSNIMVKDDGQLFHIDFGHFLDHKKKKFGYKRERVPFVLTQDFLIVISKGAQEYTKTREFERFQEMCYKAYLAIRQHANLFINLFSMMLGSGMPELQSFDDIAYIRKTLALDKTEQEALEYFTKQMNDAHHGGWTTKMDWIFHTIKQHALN
Sequence of PI3Kα (P26450 whole entry partner, canonical isoform): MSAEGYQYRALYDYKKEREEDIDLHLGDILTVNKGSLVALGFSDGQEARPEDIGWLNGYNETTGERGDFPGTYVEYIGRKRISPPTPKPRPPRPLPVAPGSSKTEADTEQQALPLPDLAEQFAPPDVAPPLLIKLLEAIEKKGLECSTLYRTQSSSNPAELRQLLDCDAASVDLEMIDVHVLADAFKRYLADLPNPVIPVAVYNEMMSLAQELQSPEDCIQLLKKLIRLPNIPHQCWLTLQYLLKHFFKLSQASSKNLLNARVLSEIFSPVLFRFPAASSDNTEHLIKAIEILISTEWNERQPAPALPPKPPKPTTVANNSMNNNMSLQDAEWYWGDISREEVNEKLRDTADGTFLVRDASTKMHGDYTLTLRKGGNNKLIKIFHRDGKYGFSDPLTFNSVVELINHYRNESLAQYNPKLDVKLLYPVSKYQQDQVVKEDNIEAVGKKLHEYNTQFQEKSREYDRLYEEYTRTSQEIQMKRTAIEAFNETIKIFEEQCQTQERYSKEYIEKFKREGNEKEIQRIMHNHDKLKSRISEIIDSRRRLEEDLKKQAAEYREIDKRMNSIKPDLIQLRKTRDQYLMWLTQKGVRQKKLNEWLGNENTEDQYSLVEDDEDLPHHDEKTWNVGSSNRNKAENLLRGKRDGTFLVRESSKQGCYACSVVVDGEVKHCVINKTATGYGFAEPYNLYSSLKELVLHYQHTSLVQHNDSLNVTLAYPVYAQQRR

## CC[C@H](Nc1ncnc2[nH]cnc12)c1nc2cccc(F)c2c(=O)n1-c1ccccc1 [Compound I, 5-fluoro-3-phenyl-2-[1-(9H-purin-6-ylamino)-propyl]-3H-quinazolin-4-one]
Caspase 3 and PARP
  cleavage of caspase 3 and PARP: dose dependent response in the cleavage of caspase 3 and PARP
phospho-Akt(Ser473); 10 μM, 2 hrs, B-cell and T-cell lymphomas included
  cell lines in which constitutive AKT phosphorylation was inhibited: 11 out of 11
phospho-Akt(Ser473); 2 hours treatment
  constitutive Akt(Ser473) phosphorylation: inhibits Akt phosphorylation; also recorded: Reduction in Akt(Ser473) was achieved for all cell lines
phospho-Akt(Ser473); cell lines with constitutive p-AKT
  cell lines in which constitutive AKT phosphorylation was inhibited: 13 of 13 and 13 out of 13
[1]
  AKT activation / phosphorylation (ser473) with lenalidomide: resulted in prevention of PI3K activity
[1]; N=4
  GSK3β phosphorylation (ser9): preventable by co-treatment with the compound of formula I
[2]; N=13
  VEGF transcription: reversible by treatment with the compound of formula I
[2]; N=15
  b-FGF transcription: prevented this up-regulation
[2]; N=15, p<0.009
  mRNA of CD40, CD86, CD154 and CD80: prevent the increase in mRNA of CD40, CD86, CD154 and CD80 promoted by lenalidomide
PI3Kα
  EC50: > 20 µM
CLL patients; Day28+, baseline 186 pg/mL, 14 CLL patients
  mean plasma level of CCL3: 29 pg/mL
CLL patients; Day28+, baseline 316 pg/mL, 14 CLL patients
  mean plasma level of CXCL13: 40 pg/mL
CLL patients; Day28+, baseline 104, 14 CLL patients
  mean plasma level of TNFα: 29 pg/mL
CLL patients; Day28+, baseline 303, 14 CLL patients
  mean plasma level of CCL4: 70 pg/mL
CLL patients; Day28+, baseline 1067, 14 CLL patients
  mean plasma level of CCL22: 533 pg/mL
CLL patients; patients on treatment, n=12
  down-regulation of pAkt(T308) in peripheral CLL cells: > 90%
[3]
  proliferation of ovarian cancer cell lines: cytotoxic to two ovarian cancer cell lines
[3]; listed as compound of formula I
  proliferation of ovarian cancer cell lines: inhibits proliferation of ovarian cancer cell lines
CLL cells; BCR cross-linking, from 4060±1392 pg/mL, mean±SEM, n=6
  supernatant CCL3 concentration: 2901 ± 1220 pg/mL
CLL cells; BCR cross-linking, from 5721±1789 pg/mL, mean±SEM, n=6
  supernatant CCL4 level: 3223 ± 1311 pg/mL
CLL cells; human, 48 h
  CLL cell viability, % of controls: 85±3%
CLL-NLC co-cultures; CLL-NLC co-cultures, from 151±35, n=4
  CXCL13 level: 70 ± 27 pg/mL
CLL-NLC co-cultures; CLL-NLC co-cultures, from 943±535 pg/mL, n=5
  CCL3 concentration: 156 ± 8 pg/mL
CLL-NLC co-cultures; CLL-NLC co-cultures, from 7433±4463 pg/mL, n=5
  CCL4 concentration: 316 ± 53 pg/mL
CLL-NLC co-cultures; human, 48 h
  CLL cell viability, % of untreated controls: 64±6%
CIIbeta
  IC50: > 1 µM
Patient AML cells
  phospho-Akt production in patient AML cells: reduces phospho-Akt production in patient AML cells
[4]
  CLL cell adherence to stroma at one hour: reduced adherence of CLL cells was detectable
[4]; 10 μM
  CLL cell adherence to stroma at 24 hours: exhibited less adherent at 24 hours
LB cells
  LB cell growth: LB cell growth is reduced
